We go through one substance from patent US20240083946A1, “SELF-ASSEMBLING PEPTIDES, NANOFIBERS, AND METHODS OF USE” (The Board of Regents of the University of Oklahoma, priority 2021, published 2024).

The assay deals with OVCAR-8 ovarian cancer cells. As to the kind of experiment: Toxicity of peptide sets and individual peptides to OVCAR-8 cells (relative ATP, live/dead imaging). The format is cell-based. Particulars: 6 hours, FIGS. 6A-B. How it is done:
Image analysis indicated green cells were living and red cells were dead (color not shown).
Incubation of the peptides with OVCAR-8 ovarian cancer cells were incubated with the peptides of the [AA], [II], [WW] peptide sets. […] Red fluorescence (ethidium homodimer-1) was associated with loss of plasma membrane integrity whereas the green fluorescence correlated with intracellular esterase activity of metabolically active cells (color not shown in figures). Pyroptosis is a newly identified cell death modality characterized by the formation of large bubbles on the plasma membrane and cell swelling. Recently pyroptosis has been classified as a regulated cell death (RCD) by Nomenclature Committee on Cell Death (NCCD). Peptide-treated OVCAR-8 cells indicated pyroptotic morphology. One of the pathways mediating pyroptosis is through cleavage of caspase-3.

In the case of KFFWWK, the “toxicity to OVCAR-8 cells” value is given as “toxicity”.
